According to patent US7732618B2, “Benzimidazole acetic acids exhibiting CRTH2 receptor antagonism and uses thereof” (Wyeth, priority 2004, dated 2010):
One block for each compound: values may come before it.

Tests used:
human CRTH2 [1] = target: T1, human CRTH2 (Homo sapiens, UniProt Q9Y5Y4); test: CRTH2 fluorescent imaging assay (intracellular calcium); format: cell-based; set-up: expressed in transfected cells; host or cells: HEK 293EBNA-hCRTH2 cells or HT1080-hCRTH2 cells; conditions: calcium response
T1 sequence (Q9Y5Y4 1-395): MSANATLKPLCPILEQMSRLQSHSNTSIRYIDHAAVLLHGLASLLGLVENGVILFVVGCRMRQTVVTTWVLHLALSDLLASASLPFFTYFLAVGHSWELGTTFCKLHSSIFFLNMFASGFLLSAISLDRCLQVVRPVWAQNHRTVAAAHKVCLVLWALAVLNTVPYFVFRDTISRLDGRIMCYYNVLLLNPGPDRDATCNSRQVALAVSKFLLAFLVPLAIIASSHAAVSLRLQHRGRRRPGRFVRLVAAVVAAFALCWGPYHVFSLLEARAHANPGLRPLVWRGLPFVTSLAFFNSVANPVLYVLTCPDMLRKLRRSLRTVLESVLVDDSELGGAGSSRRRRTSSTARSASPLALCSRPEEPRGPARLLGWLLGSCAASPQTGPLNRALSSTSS
Description: The ability of the disclosed compounds to act as agonists for the hCRTH2 receptor was determined by their ability to cause increases in intracellular calcium via binding to the CRTH2 receptor.
Assays were performed on HEK 293EBNA-hCRTH2 cells that had been grown in DMEM media containing 10% FBS, […] puromycin and 1% penicillin/streptomycin/glutamine (PSG) at 37° C. in 5% CO2 or on HT1080-hCRTH2 cells (a HT1080 cell line stably expressing human CRTH2) that had been grown in alphaMEM media containing 10% FBS, 500 μg/ml hygromycin, 200 nM methotrexate and 1% PSG at 37° C. in 5% CO2.
For the assay, HEK 293EBNA-hCRTH2 cells or HT1080-hCRTH2 cells were grown to approximately 90% confluency and then dislodged from the plate with Trypsin-EDTA, resuspended in DMEM media, seeded in 384 well plates at 2×10^4 cells per well and incubated overnight at 37° C. The cells were loaded with a calcium sensing dye by removing the growth media and replacing it with 30 μL of dye loading Ringer's buffer (136 mM […], 5.4 mM D-Glucose, 20 mM Hepes pH 7.4, 2.1 mM MgCl2, 0.8 mM CaCl2, 0.2% BSA with 1× Calcium3Dye (Molecular Devices) and 2.5 mM Probenecid (Sigma)) per well. The cells were incubated at 37° C. for 1 hour to allow the dye to enter the cells. Compounds were serially diluted in DMSO and then diluted to 4× their final concentration with Ringer's buffer. The compounds were added to a 384 well plate in quadruplicate. In addition to test compounds, several wells contained Ringer's buffer with DMSO. These wells serve as control wells. 10 μL was transferred from compound/control plate to the plate containing cells loaded with dye by a fluorescent imaging plate reader (Molecular Devices). The fluorescence was measured every 4 seconds for 4 minutes. These measurements indicated the level of intracellular calcium. Increases in fluorescence relative to wells containing buffer only indicated an agonist effect of the compound. Measurement at various compound concentrations allowed one to determine the EC50 for these compounds. Following the 4 minute incubation with compound, 20 μL of Ringer's buffer with either 10 nM or 500 nM PGD2 (approximate EC75 for PGD2 in HEK 293EBNA-hCRTH2 cells and HT1080-hCRTH2 cells, respectively) was added to the wells. Inhibition by the compounds of the calcium response due to antagonism of PGD2 action on CRTH2 is reflected by a decrease in fluorescent signal relative to wells containing no compound. The fluorescence was measured every 2 seconds for 10 seconds before addition of PGD2 and every 2 seconds for 110 seconds following addition. Measurement at various compound concentrations allowed one to determine the IC50 for the compounds. EC50 and IC50 values were determined from the experimental results by nonlinear regression using the Prism 4.0 software.

human CRTH2 [2] = target: T1, human CRTH2; test: CRTH-2 binding assay (scintillation proximity assay, inhibition of 3H-PGD2 binding); set-up: expressed in transfected cells; host or cells: 293EBNA-hCRTH2 cells (membrane preparation); conditions: membranes from 293EBNA-hCRTH2 cells, 3H-PGD2 3.6 nM; Ki calculated from IC50
Description: A CRTH2 binding assay was developed to measure the ability of compounds to inhibit the binding of PGD2 to human CRTH2 using a scintillation proximity assay.
Membranes containing hCRTH2 receptors were prepared from 293EBNA-hCRTH2 cells (a 293EBNA cell line stably expressing human CRTH2). The cells were grown to confluency, harvested and washed with PBS. The cells were resuspended in 10 mM Hepes pH 7.4, 1 mM EDTA and protease inhibitors and incubated for 30 min on ice. The cells were homogenized and centrifuged for 10 min at 1000×g. The supernate was centrifuged for 30 min at 100,000×g and the membrane pellet was then resuspended in 10 mM Hepes pH 7.4 and 1 mM EDTA. The protein concentration of the membrane preparation was determined by Bradford assay (Bio-Rad).
The ability of compounds to inhibit the interaction of PGD2 to human CRTH2 was determined at seven compound concentrations. Compounds were serially diluted in DMSO then diluted into CRTH2 buffer (10 mM Hepes pH 7.4, 1 mM EDTA, 10 mM MnCl2) to six times the final desired concentration. 20 μL of the diluted compounds were transferred into non-surface binding 96-well plates (Corning). Each concentration was done in triplicate. In addition to test compounds, each plate contained 12 control wells. Six of these wells contained 20 μL of CRTH2 buffer. These wells were used to measure total binding. Six wells contained 20 μL of CRTH2 buffer plus 1.5 mM indomethacin. These wells were used to measure non-specific binding. Next, 293EBNA-hCRTH2 membranes were resuspended in CRTH2 buffer with glycerol (10 mM Hepes pH 7.4, 1 mM EDTA, 10 mM MnCl2, 25% glycerol) so that the final concentration was approximately 20 μg/100 μL. Polylysine-coated yttrium silicate SPA beads (Amersham) were added to the membrane mix to a concentration of 0.4 mg/100 μL and finally ^3H-PGD2 was added to the membrane/SPA bead mix to 3.6 nM. 100 μL of the membrane/SPA bead/^3H-PGD2 mix was added to each well of the non-surface binding plates containing the diluted compound or controls. The plates were incubated for 2 hours at room temperature with shaking and then the plates were counted on a Microbeta scintillation counter (Perkin Elmer) for 1 min per well.
IC50 values were determined from the experimental results by nonlinear regression using Prism 4.0 software. The IC50 values were then used in conjunction with the Kd for hCRTH2 and the ^3H-PGD2 concentration used in the experiment to calculate the Ki for each compound.

Compound: CCCCC[C@H](O)/C=C/[C@H]1C(=O)C[C@H](O)[C@@H]1C/C=C\CCCC(=O)O [PGD2, prostaglandin D2, reference compound]
approximate EC75 for PGD2 (human CRTH2 [1]; HEK 293EBNA-hCRTH2 cells): ~0.01 µM
approximate EC75 for PGD2 (human CRTH2 [1]; HT1080-hCRTH2 cells): ~0.5 µM

Compound: CCCc1nc2cc(N(Cc3cccc(Cl)c3Cl)S(=O)(=O)c3ccc(F)cc3)ccc2n1CC(=O)O [Example 44, {5-[(2,3-Dichloro-benzyl)-(4-fluoro-benzenesulfonyl)-amino]-2-propyl-benzoimidazol-1-yl}-acetic acid]
Ki (human CRTH2 [2]): < 0.1 µM

Compound: CCCc1nc2cc(N(Cc3ccccc3)C(=O)c3cccc(Cl)c3)ccc2n1CC(=O)O [Example 62, {5-[Benzyl-(3-chloro-benzoyl)-amino]-2-propyl-benzoimidazol-1-yl}-acetic acid]
Ki (human CRTH2 [2]): < 1 µM

Compound: CCCc1nc2cc(NS(=O)(=O)c3ccc(F)cc3)ccc2n1CC(=O)O [Example 1, [5-(4-Fluoro-benzenesulfonylamino)-2-propyl-benzoimidazol-1-yl]-acetic acid]
Ki (human CRTH2 [2]): < 1 µM

Compound: CCCCc1nc2cc(NS(=O)(=O)c3ccc(F)cc3)ccc2n1CC(=O)O [Example 12, [2-Butyl-5-(4-fluoro-benzenesulfonylamino)-benzoimidazol-1-yl]-acetic acid]
Ki (human CRTH2 [2]): < 1 µM

Compound: CCCc1nc2cc(N(Cc3ccc(F)cc3)C(=O)COC)ccc2n1CC(=O)O [Example 30, {5-[(4-Fluoro-benzyl)-(2-methoxy-acetyl)-amino]-2-propyl-benzoimidazol-1-yl}-acetic acid]
Ki (human CRTH2 [2]): < 1 µM

Compound: CCCc1nc2c(N(Cc3ccccc3)S(=O)(=O)c3cccc(F)c3)cccc2n1CC(=O)O [Example 34, {4-[Benzyl-(3-fluoro-benzenesulfonyl)-amino]-2-propyl-benzoimidazol-1-yl}-acetic acid]
Ki (human CRTH2 [2]): < 1 µM

Compound: CC(C)=CCCC(C)c1nc2cc(NS(=O)(=O)c3ccc(F)cc3)ccc2n1CC(=O)O (stereo not shown) [Example 4, [2-(1,5-Dimethyl-hex-4-enyl)-5-(4-fluoro-benzenesulfonylamino)-benzoimidazol-1-yl]-acetic acid]
Ki (human CRTH2 [2]): < 10 µM

Compound: CCCc1nc2cc(N(Cc3ccc(F)cc3)S(=O)(=O)c3cccc(F)c3)ccc2n1CC(=O)O [Example 27, {5-[(3-Fluoro-benzenesulfonyl)-(4-fluoro-benzyl)-amino]-2-propyl-benzoimidazol-1-yl}-acetic acid]
Ki (human CRTH2 [2]): < 1 µM

Compound: CCCc1nc2c(N(Cc3ccccc3)S(=O)(=O)Cc3ccc(F)cc3)cccc2n1CC(=O)O [Example 39, {4-[Benzyl-(4-fluoro-phenylmethanesulfonyl)-amino]-2-propyl-benzoimidazol-1-yl}-acetic acid]
Ki (human CRTH2 [2]): < 1 µM

Compound: CCCc1nc2cc(N(Cc3ccccc3)C(=O)c3ccc(Cl)cc3)ccc2n1CC(=O)O [Example 63, {5-[Benzyl-(4-chloro-benzoyl)-amino]-2-propyl-benzoimidazol-1-yl}-acetic acid]
Ki (human CRTH2 [2]): < 1 µM

The remaining lines, values ahead:

Ki (human CRTH2 [2]): < 1 µM
Compound: CCCc1nc2cc(N(Cc3c(C)noc3C)S(=O)(=O)c3ccc(F)cc3)ccc2n1CC(=O)O [Example 24, {5-[(3,5-Dimethyl-isoxazol-4-ylmethyl)-(4-fluoro-benzenesulfonyl)-amino]-2-propyl-benzoimidazol-1-yl}-acetic acid]

Ki (human CRTH2 [2]): < 1 µM
Compound: CCCc1nc2cc(N(CC(=O)OCC)S(=O)(=O)c3ccc(F)cc3)ccc2n1CC(=O)O [Example 18, {5-[Ethoxycarbonylmethyl-(4-fluoro-benzenesulfonyl)-amino]-2-propyl-benzoimidazol-1-yl}-acetic acid]

Ki (human CRTH2 [2]): < 1 µM
Compound: CCc1nc2cc(NS(=O)(=O)c3ccc(F)cc3)ccc2n1CC(=O)O [Example 3, [2-Ethyl-5-(4-fluoro-benzenesulfonylamino)-benzoimidazol-1-yl]-acetic acid]

Ki (human CRTH2 [2]): < 0.1 µM
Compound: C/C=C/CN(c1ccc2c(c1)nc(CCC)n2CC(=O)O)S(=O)(=O)c1ccc(F)cc1 [Example 56, {5-[But-2-enyl-(4-fluoro-benzenesulfonyl)-amino]-2-propyl-benzoimidazol-1-yl}-acetic acid]

Ki (human CRTH2 [2]): < 0.1 µM
Compound: CCCc1nc2cc(N(CC3COc4ccccc4O3)S(=O)(=O)c3ccc(F)cc3)ccc2n1CC(=O)O (stereo not shown) [Example 23, {5-[(2,3 -Dihydro-benzo[1,4]dioxin-2-ylmethyl)-(4-fluoro-benzenesulfonyl)-amino]-2-propyl-benzoimidazol-1-yl}-acetic acid]

Ki (human CRTH2 [2]): < 0.1 µM
Compound: CCCc1nc2cc(N(Cc3ccccc3)S(=O)(=O)c3ccc(F)cc3)ccc2n1CC(=O)O [Example 14, {5-[Benzyl-(4-fluoro-benzenesulfonyl)-amino]-2-propyl-benzoimidazol-1-yl}-acetic acid]

Ki (human CRTH2 [2]): < 0.1 µM
Compound: CCCc1nc2cc(N(Cc3ccc(C#N)cc3)S(=O)(=O)c3ccc(F)cc3)ccc2n1CC(=O)O [Example 52, {5-[(4-Cyano-benzyl)-(4-fluoro-benzenesulfonyl)-amino]-2-propyl-benzoimidazol-1-yl}-acetic acid]

Ki (human CRTH2 [2]): < 10 µM
Compound: CSCCc1nc2cc(NS(=O)(=O)c3ccc(F)cc3)ccc2n1CC(=O)O [Example 5, [5-(4-Fluoro-benzenesulfonylamino)-2-(2-methylsulfanyl-ethyl)-benzoimidazol-1-yl]-acetic acid]

Ki (human CRTH2 [2]): < 0.1 µM
Compound: CCCc1nc2cc(N(Cc3nc4ccccc4s3)S(=O)(=O)c3ccc(F)cc3)ccc2n1CC(=O)O [Example 55, {5-[Benzothiazol-2-ylmethyl-(4-fluoro-benzenesulfonyl)-amino]-2-propyl-benzoimidazol-1-yl}-acetic acid]

Ki (human CRTH2 [2]): < 0.1 µM
Compound: CCCc1nc2cc(N(CCCc3ccccc3)S(=O)(=O)c3ccc(F)cc3)ccc2n1CC(=O)O [Example 48, {5-[(4-Fluoro-benzenesulfonyl)-(3-phenyl-propyl)-amino]-2-propyl-benzoimidazol-1-yl}-acetic acid]
